In one series the target is T1, hPD-1/hPD-L1 (Homo sapiens, UniProt Q9NZQ7).
T1 construct: purchased CISBIO
The series is described as follows: PD-1/PD-L1 binding assay kit (CISBIO), HTRF assay of PD-1/PD-L1 protein-protein interaction. The conditions noted are these: for inhibitory activity of PD-1/PD-L1 protein-protein interaction compared with BMS-202: HTRF, comparison with BMS-202. Here is the method: Experimental objective: the activity of the compounds of formula (I) to inhibit the PD-1/PD-L1 interaction was tested by using a PD-1/PD-L1 binding assay kit (CISBIO).
Experimental principle: HTRF (Homogeneous Time-Resolved Fluorescence) is a technique used to detect substances to be tested in pure liquid phase systems. It primarily utilizes energy transfer of two fluorescent groups, which are divided into an energy donor europium (Eu^+) and an energy acceptor. When the donor is externally excited (e.g., a flash lamp or laser), the energy can be resonantly transferred to the acceptor if the donor is close enough to the acceptor, and the acceptor is excited at a specific wavelength. By using the HTRF technology, the assay enables simple and rapid characterization of compounds and antibody blockers in a high-throughput format. By using anti-Tag1 labeled with Eu^+ (Europium) (the HTRF energy donor) and anti-Tag2 labeled with XL665 (the HTRF energy acceptor), the interaction between PD-L1 and PD-1 can be detected. PD-L1 protein and PD-1 protein are labeled with Tag1 and Tag2, respectively, and Eu^+ and XL665 bind to PD-L1 and PD-1, respectively, through antibodies to form complexes. […] This specific signal is directly proportional to the degree of PD1/PD-L1 interaction.
Experimental materials: kit: PD-1/PD-L1 binding assay kits purchased from CISBIO; and 96-well plate: purchased from CISBIO.
Test instrument: Perkin Elmer, model: EnVision.
Test compounds: the compounds in formula (I).
Experimental procedure: PD-1/PD-L1 binding assay kits were used. […] The plates were sealed by using microplate sealers, centrifuging was performed at 1000 rpm for 1 min, and incubation was performed at room temperature for 15 min. The Anti-Tag-Eu^3+ and Anti-tag-XL665 which were diluted with Buffer were then mixed in equal volumes, then 10 µL of the mixed solution was added to each well, the sealed plates were centrifuged at 1000 rpm for 1 min, and incubation was performed at room temperature for 2 h. […] IC50 of the compounds was calculated by using Graphpad.

The nature of series [1]: Acute toxicity test, single oral gavage. In kind it is in vivo. The conditions noted are these: both sexes, rat, in vivo, po, SD rats, read-out: maximum tolerated dose (MTD). As to the method:
• Animal species and number: SD rats; 6 rats in each group (half male and half female); Mode of administration: oral gavage; […]; • Administration frequency: administration once.
Side-cage observation on the day of administration (D1): frequency and time of observation: side-cage observation of acute toxicity reactions was performed for 4 h after administration of animals in each group, and detailed clinical observations were performed on animals with apparent abnormal manifestations. Mortality, morbidity, respiration, secretion, feces, and diet, water drinking, etc. were observed, and changes in body weight of rats during administration were recorded. Detailed clinical observations include, but are not limited to, behavioral activities, skin, hair, eyes, ears, noses, abdomens, external genitalia, anuses, limbs, feet, and breathing. The animals in each group were euthanized at the end of the observation period, and all animals were dissected and gross observed.

By IC50 is commonly meant the point on the concentration scale where inhibition reaches its midpoint. Lower therefore signals inhibition by little substance. By MTD is commonly meant the largest dose that counted as tolerated.

Where only a bound is given, the exact number is not on record here.

T1 sequence (Q9NZQ7 19-238 limits assumed): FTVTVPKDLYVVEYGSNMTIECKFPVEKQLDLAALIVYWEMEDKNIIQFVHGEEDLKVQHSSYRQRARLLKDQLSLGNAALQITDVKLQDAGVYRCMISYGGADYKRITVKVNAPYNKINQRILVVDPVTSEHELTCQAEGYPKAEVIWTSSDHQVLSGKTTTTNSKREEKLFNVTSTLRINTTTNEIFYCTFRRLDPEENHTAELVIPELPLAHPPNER

Turning to `Cc1c(-c2ccc3c(c2)CN(C(C)C(=O)O)C3=O)cccc1-c1ccccc1F` (stereo not shown) [I-A-6, 2-(5-(2'-Fluoro-2-methyl-[1,1'-biphenyl]-3-yl)-1-oxoisoindolin-2-yl)propanoic acid], the IC50 at hPD-1/hPD-L1 is above 1000 nM.
Regarding `Cc1c(-c2ccc3c(c2)CN(CCO)C3=O)cccc1-c1ccccc1F` [I-A-7, 5-(2'-Fluoro-2-methyl-[1,1'-biphenyl]-3-yl)-2-(2-hydroxyethyl)isoindo 1-1-one], the IC50 on hPD-1/hPD-L1 was in the range of 70 to 1000 nM.
In the case of `OCCN1CCc2nc(OCc3cccc(-c4ccccc4Cl)c3F)ccc2C1` [I-D-24, 2-(2-((2'-chloro-2-fluoro-[1,1'-biphenyl]-3-yl)methoxy)-7,8-dihydro-1,6-naphthyridin-6(5H)-yl)ethan-1-ol], the IC50 on hPD-1/hPD-L1 was 70 to 1000 nM. The MTD in series [1] is at least 2000 mg/kg.
For `OCCN1CCc2nc(OCc3cccc(-c4ccccc4F)c3F)ccc2C1` [I-D-22, 2-(2-((2,2'-difluoro-[1,1'-biphenyl]-3-yl)methoxy)-7,8-dihydro-1,6-naphthyridin-6(5H)-yl)ethan-1-ol], at hPD-1/hPD-L1, the IC50 stood at 10.5 nM and the “inhibitory activity of PD-1/PD-L1 protein-protein interaction compared with BMS-202” value (“inhibitory activity … compared with BMS-202” below) is reported as “superior to that of the compound BMS-202”.
At hPD-1/hPD-L1, `Cc1c(-c2ccc3c(c2)CN(CC(N)=O)C3=O)cccc1-c1ccccc1F` [I-A-8, 2-(5-(2'-Fluoro-2-methyl-[1,1'-biphenyl]-3-yl)-1-oxoisoindolin-2-yl)acetamide] displayed an IC50 of 70 to 1000 nM.
On hPD-1/hPD-L1, `Cc1ccccc1-c1cccc(COc2ccc3c(n2)CCN(CCO)C3)c1F` [I-D-23, 2-(2-((2-fluoro-2'-methyl-[1,1'-biphenyl]-3-yl)methoxy)-7,8-dihydro-1,6-naphthyridin-6(5H)-yl)ethan-1-ol] yielded an IC50 of 70 to 1000 nM.
Take `Cc1ccccc1-c1cccc(COc2ccc3c(n2)CCN(CCO)C3)c1Cl` [I-D-19, 2-(2-((2-chloro-2'-methyl-[1,1'-biphenyl]-3-yl)methoxy)-7,8-dihydro-1,6-naphthyridin-6(5H)-yl)ethan-1-ol]: on hPD-1/hPD-L1, the IC50 worked out at 20.1 nM and the “inhibitory activity … compared with BMS-202” value was “superior to that of the compound BMS-202”.
The compound `Cc1c(-c2ccc3c(c2)CN(CCC(=O)O)C3=O)cccc1-c1ccccc1F` [I-A-5, 3-(5-(2'-Fluoro-2-methyl-[1,1'-biphenyl]-3-yl)-1-oxoisoindolin-2-yl)propanoic acid] showed an IC50 at hPD-1/hPD-L1 above 1000 nM.
On to `Cc1ccccc1-c1cccc(COc2ccc3c(n2)CCN(CCO)C3)c1C` [I-D-15, 2-(2-((2,2'-dimethyl-[1,1'-biphenyl]-3-yl)methoxy)-7,8-dihydro-1,6-naphthyridin-6(5H)-yl)ethan-1-ol], for which, at hPD-1/hPD-L1, the IC50 lay in the range of 70 to 1000 nM.
As for `OCCN1CCc2nc(OCc3cccc(-c4ccccc4)c3Cl)ccc2C1` [I-D-21, 2-(2-((2-chloro-[1,1'-biphenyl]-3-yl)methoxy)-7,8-dihydro-1,6-naphthyridin-6(5H)-yl)ethan-1-ol], at hPD-1/hPD-L1, the IC50 was found to be 31.1 nM and the “inhibitory activity … compared with BMS-202” value is “superior to that of the compound BMS-202”.
Compound `Cc1c(-c2ccc3c(n2)CCN(CCO)C3)cccc1-c1ccccc1F` [I-B-3, 2-(2-(2'-Fluoro-2-methyl-[1,1'-biphenyl]-3-yl)-7,8-dihydro-1,6-naphthyridin-6(5H)-yl)ethan-1-ol] registered an IC50 on hPD-1/hPD-L1 of 70 to 1000 nM.
In the case of `Cc1c(-c2ccc3c(c2)CN(CCO)C3)cccc1-c1ccccc1F` [I-A-9, 2-(5-(2'-Fluoro-2-methyl-[1,1'-biphenyl]-3-yl)isoindolin-2-yl)ethan-1-ol], at hPD-1/hPD-L1, the IC50 was determined as 11 nM and the “inhibitory activity … compared with BMS-202” value was “superior to that of the compound BMS-202”.
`O=C(O)CN1CCc2nc(OCc3cccc(-c4ccccc4F)c3)ccc2C1` [I-D-30, 2-(2-((2'-fluoro-[1,1'-biphenyl]-3-yl)methoxy)-7,8-dihydro-1,6-naphthyridin-6(5H)-yl)acetic acid]: at hPD-1/hPD-L1, the IC50 was determined as 13.4 nM and the “inhibitory activity … compared with BMS-202” value is “superior to that of the compound BMS-202”.
Compound `OCCN1CCc2nc(OCc3cccc(-c4ccccc4Cl)c3Cl)ccc2C1` [I-D-20, 2-(2-((2,2'-dichloro-[1,1'-biphenyl]-3-yl)methoxy)-7,8-dihydro-1,6-naphthyridin-6(5H)-yl)ethan-1-ol] displayed a half-inhibitory concentration (IC50) on hPD-1/hPD-L1 of 70 to 1000 nM.
The compound `Cc1c(COc2ccc3c(n2)CCN(CCO)C3)cccc1-c1ccccc1Cl` [I-D-16, 2-(2-((2'-chloro-2-methyl-[1,1'-biphenyl]-3-yl)methoxy)-7,8-dihydro-1,6-naphthyridin-6(5H)-yl)ethan-1-ol] showed a 50% inhibitory concentration (IC50) at hPD-1/hPD-L1 of 70 to 1000 nM.
For the compound `Cc1c(COc2ccc3c(n2)CCN(CCO)C3)cccc1-c1ccccc1F` [I-D-14, 2-(2-((2'-fluoro-2-methyl-[1,1'-biphenyl]-3-yl)methoxy)-7,8-dihydro-1,6-naphthyridin-6(5H)-yl)ethan-1-ol], on hPD-1/hPD-L1, the IC50 worked out at 15.8 nM and the “inhibitory activity … compared with BMS-202” value was “superior to that of the compound BMS-202”.
In the case of `Cc1c(-c2ccc3c(c2)CN(CC(=O)O)C3=O)cccc1-c1ccccc1F` [I-A-4, 2-(5-(2'-Fluoro-2-methyl-[1,1'-biphenyl]-3-yl)-1-oxoisoindolin-2-yl)acetic acid], the IC50 at hPD-1/hPD-L1 is above 1000 nM.
Turning to `Cc1c(-c2ccc3c(n2)CCN(CC(=O)O)C3)cccc1-c1ccccc1F` [I-B-2, 2-(2-(2'-Fluoro-2-methyl-[1,1'-biphenyl]-3-yl)-7,8-dihydro-1,6-naphthyridin-6(5H)-yl)acetic acid], at hPD-1/hPD-L1, the IC50 came to 19 nM and the “inhibitory activity … compared with BMS-202” value is recorded as “superior to that of the compound BMS-202”.
In the case of `Cc1c(COc2ccc3c(n2)CCN(CC(=O)O)C3)cccc1-c1ccccc1F` [I-D-13, 2-(2-((2'-fluoro-2-methyl-[1,1'-biphenyl]-3-yl)methoxy)-7,8-dihydro-1,6-naphthyridin-6(5H)-yl)acetic acid], at hPD-1/hPD-L1, the IC50 is 23 nM and the “inhibitory activity … compared with BMS-202” value was “superior to that of the compound BMS-202”.
With `Cc1c(COc2ccc3c(n2)CCN(CCO)C3)cccc1-c1ccccc1` [I-D-17, 2-(2-((2-methyl-[1,1'-biphenyl]-3-yl)methoxy)-7,8-dihydro-1,6-naphthyridin-6(5H)-yl)ethan-1-ol], on hPD-1/hPD-L1, the IC50 was in the range of 70 to 1000 nM.
`OCCN1CCc2nc(OCc3cccc(-c4ccccc4)c3F)ccc2C1` [I-D-25, 2-(2-((2-fluoro-[1,1'-biphenyl]-3-yl)methoxy)-7,8-dihydro-1,6-naphthyridin-6(5H)-yl)ethan-1-ol]: the IC50 at hPD-1/hPD-L1 lay within 70 to 1000 nM.
On to `Cc1c(COc2ccc3c(n2)N(C)CN(CC(=O)O)C3)cccc1-c1cccc(OCCCN2CC[C@@H](O)C2)c1C` [I-E-4, (R)-2-(7-((3'-(3-(3-hydroxypyrrolidin-1-yl)propoxy)-2,2'-dimethyl-[1,1'-biphenyl]-3-yl)methoxy)-1-methyl-1,4-dihydropyrido[2,3-d]pyrimidin-3(2H)-yl)acetic acid], for which, on hPD-1/hPD-L1, the IC50 was found to be 58.5 nM and the “inhibitory activity … compared with BMS-202” value is on record as “superior to that of the compound BMS-202”.
In the case of `O=CCN1CCc2nc(OCc3cccc(-c4ccccc4F)c3Cl)ccc2C1` [I-D-28, 2-(2-((2-chloro-2'-fluoro-[1,1'-biphenyl]-3-yl)methoxy)-7,8-dihydro-1,6-naphthyridin-6(5H)-yl)acetaldehyde], on hPD-1/hPD-L1, the IC50 came out at 24.2 nM and the “inhibitory activity … compared with BMS-202” value was “superior to that of the compound BMS-202”.

The values above are taken from patent publication EP4556465A1, “NOVEL BICYCLIC PD-L1 INHIBITORS, PREPARATION METHODS THEREFOR AND MEDICINAL USES THEREOF” (priority 2022, dated 2024).
